According to patent US20210161135A1, “WEED CONTROL FROM APPLICATIONS OF PYRIDINE CARBOXYLIC ACID HERBICIDES AND 4-HYDROXYPHENYL-PYRUVATE DIOXYGENASE (HPPD) INHIBITORS” (Dow AgroSciences LLC, priority 2018, published 2021):

Columns and labels:
Assay in all cases: Postemergence herbicidal activity, greenhouse, visual injury after 20-22 d
Type in all cases: in vivo
[1] = tested on: ivyleaf morningglory (Ipomoea hederacea, IPOHE); conditions: two trials
Method: (§1) Seeds of the desired test plant species were planted in Sun Gro MetroMix® 306 planting mixture, which typically has a pH of 6.0 to 6.8 and an organic matter content of about 30 percent, in plastic pots with a surface area of 103.2 square centimeters (cm^2). When required to ensure good germination and healthy plants, a fungicide treatment and/or other chemical or physical treatment was applied. The plants were grown for 7-36 days (d) in a greenhouse with an approximate 14-hour (h) photoperiod which was maintained at about 23° C. during the day and 22° C. during the night. Nutrients and water were added on a regular basis and supplemental lighting was provided with overhead metal halide 1000-Watt lamps as necessary. The plants were employed for testing when they reached the second or third true leaf stage.
(§2) An emulsifiable concentrate (EC) formulation containing Compound 1 at 100 gai/L was prepared by combining Compound 1 with 1-butyl-2-pyrrolidinone (Tamisolve NxG; 360.5 g/L), benzyl acetate (544.6 g/L) and Agnique MBL 520L surfactant (52.9 g/L). […] The concentrated stock solutions were diluted with an aqueous mixture of 1.5% v/v of Agri-dex crop oil concentrate to provide the appropriate application rates. Compound requirements are based upon a 12 milliliter (mL) application volume at a rate of 187 liters per hectare (L/ha). Spray solutions of the experimental compound mixtures were prepared by adding the stock solutions to the appropriate amount of dilution solution to form a 12 mL spray solution in two-way combinations. Formulated compounds were applied to the plant material with an overhead Mandel track sprayer equipped with 8002E nozzles calibrated to deliver 187 L/ha over an application area of 0.503 square meters (m^2) at a spray height of […] above average plant canopy. Control plants were sprayed in the same manner with the solvent blank. Application rates for component (a) are in g ai/ha, and application rates for component (b) are in g ai/ha.
(§3) The treated plants and control plants were placed in a greenhouse as described above and watered by sub-irrigation to prevent wash-off of the test compounds. After 20-22 d, the condition of the test plants as compared with that of the control plants was determined visually and scored on a scale of 0 to 100 percent where 0 corresponds to no injury and 100 corresponds to complete kill. […] The Colby method was used to determine the herbicidal effects expected from the mixtures.

[2] = tested on: grain sorghum (Sorghum vulgare, SORVU); conditions: two trials
Method: as §1, §2, §3

[3] = tested on: sunflower (Helianthus annuus, HELAN); conditions: two trials
Method: as §1, §2, §3

[4] = tested on: common lambsquarters (Chenopodium album L., CHEAL)
Method: as §1, §2, §3

[5] = tested on: large crabgrass (Digitaria sanguinalis, DIGSA); conditions: HPPD inhibitor 35 g ai/ha alone, two trials
Method: as §1, §2, §3

[6] = tested on: pigweed (Amaranthus retroflexus, AMARE); conditions: two trials
Method: as §1, §2, §3

[7] = tested on: velvetleaf (Abutilon theophrasti, ABUTH)
Method: as §1, §2, §3

[8] = tested on: common chickweed (Stellaria media, STEME); conditions: two trials
Method: as §1, §2, §3

[9] = tested on: poinsettia (Euphorbia heterophylla, EPHHL)
Method: as §1, §2, §3

[10] = tested on: winter rape (Brassica napus, BRSNW); conditions: two trials
Method: as §1, §2, §3

maize (Zea mays, ZEAMX) = conditions: two trials
Method: as §1, §2, §3

[11] = tested on: barnyardgrass (Echinochloa crus-galli, ECHCG); conditions: two trials
Method: as §1, §2, §3

[12] = tested on: soybean (Glycine max, GLXMA); conditions: two trials
Method: as §1, §2, §3

[13] = tested on: thistle (Cirsium arvense CIRAR)
Method: as §1, §2, §3

[14] = tested on: wild buckwheat (Polygonum convolvulus, POLCO)
Method: as §1, §2, §3

[15] = tested on: wild pansy (Viola tricolor, VIOTR)
Method: as §1, §2, §3

[16] = tested on: spring rape (Brassica napus, BRSNN)
Method: as §1, §2, §3

[17] = tested on: giant foxtail (Setaria faberi, SETFA); conditions: two trials
Method: as §1, §2, §3

[18] = tested on: kochia (Kochia scoparia, KCHSC)
Method: as §1, §2, §3

[19] = tested on: winter wheat (Triticum aestivum, TRZAW); conditions: Sulcotrione 75 g ai/ha alone, two trials
Method: as §1, §2, §3

[20] = tested on: rice (Oryza sativa, ORYSA); conditions: Sulcotrione 75 g ai/ha alone, two trials
Method: as §1, §2, §3

[21] = HPPD inhibitor 35 g ai/ha alone
[22] = HPPD inhibitor 35 g ai/ha alone, two trials
[23] = Sulcotrione 75 g ai/ha alone, two trials

**Q.** Which “Effect (% visual injury), Obs” value [1, 21] does the source give for `CS(=O)(=O)c1ccc(C(=O)C2C(=O)CCCC2=O)c([N+](=O)[O-])c1` [Mesotrione, 2-[4-(methylsulfonyl)-2-nitrobenzoyl]-1,3-cyclohexanedione] here?
**A.** 70%

**Q.** And the “Effect (% visual injury), Obs” value [2, 21]?
**A.** 0%

**Q.** And the “Effect (% visual injury), Obs” value [3, 21]?
**A.** 93%

**Q.** And the “Effect (% visual injury), Obs” value [4, 22]?
**A.** 100%

**Q.** And the “Effect (% visual injury), Obs” value [5]?
**A.** 20%

**Q.** And the “Effect (% visual injury), Obs” value [6, 21]?
**A.** 30%

**Q.** What about the “Effect (% visual injury), Obs” value [7, 22] of the same compound?
**A.** 88%

**Q.** What about the “Effect (% visual injury), Obs” value [8, 21] of the same compound?
**A.** 60%

**Q.** What about the “Effect (% visual injury), Obs” value [9, 22] of the same compound?
**A.** 20%

**Q.** And the “Effect (% visual injury), Obs” value [10, 21]?
**A.** 60%

**Q.** And the “Effect (% visual injury), Obs” value (maize (Zea mays, ZEAMX); [21])?
**A.** 0%

**Q.** What about the “Effect (% visual injury), Obs” value [11, 21] of the same compound?
**A.** 10%

**Q.** And the “Effect (% visual injury), Obs” value [12, 21]?
**A.** 70%

**Q.** What about the “Effect (% visual injury), Obs” value [13, 22] of the same compound?
**A.** 100%

**Q.** And the “Effect (% visual injury), Obs” value [14, 22]?
**A.** 48%

**Q.** What about the “Effect (% visual injury), Obs” value [15, 22] of the same compound?
**A.** 58%

**Q.** And the “Effect (% visual injury), Obs” value [16, 22]?
**A.** 100%

**Q.** And the “Effect (% visual injury), Obs” value [17, 21]?
**A.** 0%

**Q.** And the “Effect (% visual injury), Obs” value [18, 22]?
**A.** 70%

**Q.** Which “Effect (% visual injury), Obs” value ([4]; Pyrazolynate 225 g ai/ha alone) does the source give for `Cc1ccc(S(=O)(=O)Oc2c(C(=O)c3ccc(Cl)cc3Cl)c(C)nn2C)cc1` [Pyrazolynate, (2,4-dichlorophenyl)[1,3-dimethyl-5-[[(4-methylphenyl)sulfonyl]oxy]-1H-pyrazol-4-yl]methanone] here?
**A.** 10%

**Q.** And the “Effect (% visual injury), Obs” value ([7]; Pyrazolynate 225 g ai/ha alone)?
**A.** 0%

**Q.** And the “Effect (% visual injury), Obs” value ([9]; Pyrazolynate 225 g ai/ha alone)?
**A.** 0%

**Q.** And the “Effect (% visual injury), Obs” value ([13]; Pyrazolynate 225 g ai/ha alone)?
**A.** 0%

**Q.** And the “Effect (% visual injury), Obs” value ([14]; Pyrazolynate 225 g ai/ha alone)?
**A.** 0%

**Q.** What about the “Effect (% visual injury), Obs” value ([15]; Pyrazolynate 225 g ai/ha alone) of the same compound?
**A.** 0%

**Q.** What about the “Effect (% visual injury), Obs” value ([16]; Pyrazolynate 225 g ai/ha alone) of the same compound?
**A.** 0%

**Q.** And the “Effect (% visual injury), Obs” value ([18]; Pyrazolynate 225 g ai/ha alone)?
**A.** 0%

**Q.** For `CS(=O)(=O)c1ccc(C(=O)C2C(=O)CCCC2=O)c(Cl)c1` [Sulcotrione, 2-[2-chloro-4-(methylsulfonyl)benzoyl]-1,3-cyclohexanedione], which “Effect (% visual injury), Obs” value ([1]; Sulcotrione 75 g ai/ha alone) is on record?
**A.** 65%

**Q.** What about the “Effect (% visual injury), Obs” value ([2]; Sulcotrione 75 g ai/ha alone) of the same compound?
**A.** 0%

**Q.** And the “Effect (% visual injury), Obs” value ([3]; Sulcotrione 75 g ai/ha alone)?
**A.** 80%

**Q.** What about the “Effect (% visual injury), Obs” value [19] of the same compound?
**A.** 0%

**Q.** What about the “Effect (% visual injury), Obs” value [4, 23] of the same compound?
**A.** 100%

**Q.** And the “Effect (% visual injury), Obs” value ([6]; Sulcotrione 75 g ai/ha alone)?
**A.** 40%

**Q.** What about the “Effect (% visual injury), Obs” value [7, 23] of the same compound?
**A.** 50%

**Q.** What about the “Effect (% visual injury), Obs” value ([8]; Sulcotrione 75 g ai/ha alone) of the same compound?
**A.** 85%

**Q.** And the “Effect (% visual injury), Obs” value [9, 23]?
**A.** 60%

**Q.** What about the “Effect (% visual injury), Obs” value ([10]; Sulcotrione 75 g ai/ha alone) of the same compound?
**A.** 70%

**Q.** What about the “Effect (% visual injury), Obs” value (maize (Zea mays, ZEAMX); Sulcotrione 75 g ai/ha alone) of the same compound?
**A.** 0%

**Q.** What about the “Effect (% visual injury), Obs” value ([11]; Sulcotrione 75 g ai/ha alone) of the same compound?
**A.** 40%

**Q.** What about the “Effect (% visual injury), Obs” value ([12]; Sulcotrione 75 g ai/ha alone) of the same compound?
**A.** 65%

**Q.** What about the “Effect (% visual injury), Obs” value [13, 23] of the same compound?
**A.** 70%

**Q.** And the “Effect (% visual injury), Obs” value [14, 23]?
**A.** 48%

**Q.** And the “Effect (% visual injury), Obs” value [15, 23]?
**A.** 73%

**Q.** What about the “Effect (% visual injury), Obs” value [16, 23] of the same compound?
**A.** 95%

**Q.** And the “Effect (% visual injury), Obs” value [20]?
**A.** 5%

**Q.** And the “Effect (% visual injury), Obs” value ([17]; Sulcotrione 75 g ai/ha alone)?
**A.** 0%

**Q.** What about the “Effect (% visual injury), Obs” value [18, 23] of the same compound?
**A.** 45%
